Test results published in patent US9150553B2, “Carboxamide compounds and their use as calpain inhibitors” (AbbVie Deutschland GmbH & Co. KG, priority 2007, dated 2015).
Values joined by “and” are separate entries in the source; they are usually repeats but may differ in a detail not shown here. Equal entries are not always repeated.

Test: In vivo pharmacokinetic profile after oral dosing in rats (plasma, LC-MS)
Design: species or system Sprague-Dawley rats
Details: plasma prodrug I-2 after oral 10 mg/kg of prodrug example 2, male rats, lines = rat 1, 2, 3 and mean
Experimental: The compound described in example 2 was prepared as a solution (20% EtOH, 40% PEG400, qc. Ampuwa) at a concentration appropriate for a 10 mg/kg (5 mL/kg) oral dose.
Three male Sprague-Dawley rats (200-300 g; Elevage Janvier, France) were used in this study. Due to size, each rat was housed in Macrolon Type 111 cages under conventional barrier conditions. The animals were fasted overnight prior to dosing and throughout the duration of the study but were permitted water ad libitum and were permitted food typically six hours postdosing. Control animals were placed under deep isoflurane anesthia and euthanized by bleeding (cardiac puncture) and their tissues removed and used as blank standards during sample analysis.
The group contained three rats. The group of rats received a 10 mg/kg (5 mL/kg) dose orally by gavage. At the conclusion of the study, rats were euthanized by bleeding (cardiac puncture) under deep isoflurane anesthesia.
Potassium-EDTA blood samples (approx. 200-300 μl) were withdrawn from the tail vein of each animal by butterfly catheter 0.25, 0.5, 1, 1.5, 2, 3, 4, 6, 8 and 24 hours after drug administration. Upon collection, the samples were promptly placed in an ice bath, and within 2 hours after sample collection they were centrifuged at about 4° C. Upon completion of the study, animals were put under deep anesthesia using isoflurane and euthanized by bleeding (cardiac puncture). The resulting plasma samples were placed in clean PP-tubes and stored in a freezer until analysis.
The plasma samples were assayed for the compound I and corresponding drug II using appropriate liquid chromatography mass spectrometry procedures.
Peak plasma concentrations (Cmax) and the time to peak plasma concentration (Tmax) were read directly from the plasma concentration data for each rat. The drug and the prodrug plasma concentration data were submitted to multi-exponential curve fitting using WinNonlin. The area under the plasma concentration-time curve from 0 to t hours (time of the last measurable plasma concentration) after dosing (AUC0-t) was calculated using the linear trapezoidal rule for the plasma concentration-time profiles. The residual area extrapolated to infinity, determined as the final measured plasma concentration (Ct) divided by the terminal elimination rate constant (B), was added to AUC0-t to produce the total area under the curve (AUC0-∞). The apparent total plasma clearance (CLp) was calculated by dividing the administered dose by the AUC0-∞. The initial volume of distribution (Vc) was calculated as the dose divided by the extrapolated concentration at time=0 (C0). […] The bioavailability was calculated as the dose-normalized AUC0∞, from the oral dose divided by the corresponding value derived from an intravenous dose.

[1] = male, Sprague-Dawley, rat, plasma, po, 10 mg/kg

AUC [1]: 1700 ng·h/mL
Tmax [1]: 18 min
prodrug Tmax: 30 min
Structure (SMILES): NC(=O)C1(C(Cc2ccccc2)NC(=O)c2cccnc2-n2ccc(-c3cccc(C(F)(F)F)c3)n2)OCCO1 (stereo not shown) [Compound I-2, N-{1-[2-(Aminocarbonyl)-1,3-dioxolan-2-yl]-2-phenylethyl}-2-{3-[3-(trifluoromethyl)phenyl]-1H-pyrazol-1-yl}nicotinamide]
prodrug AUC: 1315 ng·h/mL and 1485 ng·h/mL and 2297 ng·h/mL
